These are literature values, as cited in patent US8158648B2, “Heteroaryl 11-beta hydroxysteroid dehydrogenase type I inhibitors” (priority 2005, dated 2012).

This series relates to hepatic glucose production. The conditions noted are these: mildly overweight individuals with type 2 diabetes, seven days, versus placebo.

In the case of `CC1(C)[C@@H](OC(=O)CCC(=O)O)CC[C@]2(C)[C@H]3C(=O)C=C4[C@@H]5C[C@@](C)(C(=O)O)CC[C@]5(C)CC[C@@]4(C)[C@]3(C)CC[C@@H]12` [carbenoxolone], the hepatic glucose production entry is on record as “decrease in hepatic glucose production”.
